# Test results from PubChem BioAssay AID2384 (Southern Research Specialized Biocontainment Screening …, 2010).
# Test system: S. typhi GFP reporter counter-screen, fluorescence, 4 h
# Test: S. typhi counter-screen signal inhibition – fluorescence, 4 h, counter-screen for PhoP regulon inhibitor project, dose response (AID 2384)
row,SMILES,IC50 [µM]
1,Cc1ccc(C(=O)N/C(=C\c2ccc(-c3ccc(Br)cc3)o2)C(=O)NCCCN(C)C)cc1,37.4
2,O=C(N/N=C/c1c[nH]c2ccccc12)c1ccc(Cl)cc1,91.6
3,O=Nc1c(O)c2ccccc2c2ccccc12,37.7
4,Cc1cc(C)n(-c2nc(NCCN(C)C)c3c4c(sc3n2)CCCC4)n1,37.9
5,Clc1cc(Br)ccc1OCCCNCc1ccccc1,39.3
6,O=C(c1ccc([N+](=O)[O-])o1)N1CCOCC1,81.8
7,O=C(N/N=C/c1cc(Br)cc(Br)c1O)c1ccncc1,45.3
8,O/N=C/c1ccc(OCc2ccccc2)c(Cl)c1,103
9,Fc1cccc(Nc2c3c(nc4ccccc24)CCC3)c1,76.6
10,COc1ccc(CNCC(O)COc2ccc(C)cc2[N+](=O)[O-])cc1 (stereo not given),128
11,CCCCCCCSc1cc(OC)c(CCNC)cc1OC,33.2
12,O=C(Nc1cccc(NC(=O)c2ccccc2Cl)c1)c1ccc([N+](=O)[O-])o1,100
13,OC(CNCc1ccco1)Cn1c2ccc(Br)cc2c2cc(Br)ccc21 (stereo not given),18.9
14,O=C(CCN1CCN(c2ccccc2)CC1)N/N=C/c1ccc([N+](=O)[O-])o1,131
15,O=C(CSc1nc2ccccc2s1)N/N=C/c1cc([N+](=O)[O-])ccc1O,60.8
16,CC(NCc1ccccc1O)C12CC3CC(CC(C3)C1)C2 (stereo not given),33.9
17,COc1ccc(/C=N/Nc2cc(C)nc3ccccc23)cc1,29.2
18,O=C(C[n+]1cnn(CC(=O)c2ccc(Cl)cc2Cl)c1)c1ccc([N+](=O)[O-])cc1,36.1
19,NC1=NC[C@H](c2ccccc2)N1CCc1cc(C(F)(F)F)cc(C(F)(F)F)c1,31.1
20,NC1=NC[C@@H](Cc2ccc(O)cc2)N1CCCCC1CCCCC1,14.8
21,CCCOc1ccc(S(=O)(=O)n2cc(F)c(=O)[nH]c2=O)cc1,139
22,Cc1c(N2C(=O)/C(=C3\C(=O)N(CC(=O)O)c4ccccc43)SC2=S)c(=O)n(-c2ccccc2)n1C,95.2
23,O=C(N/N=C/C1CC=CCC1)c1cc(Br)ccc1O (stereo not given),123

row,SMILES,IC50 [µM]
1,OCCN1CCN(CCCN2c3ccccc3Sc3ccc(Cl)cc32)CC1,73.7
2,CC[C@H](C)[C@@H](CN[C@H](C)CNC)NCCC(c1ccccc1)c1ccccc1,50.2
3,Fc1ccc(CCNCc2ccccc2Cl)cc1,83.2
4,Cc1cc(C2N=C(N)Nc3nc4ccccc4n32)c(C)n1-c1ccccc1Cl (stereo not given),32.8
5,C#CCOCCOCCOCCNc1nc(N2CCN(C(=O)[C@H]([C@@H](C)CC)n3cc([C@@H](N)CO)nn3)CC2)nc(N2CCN(C(=O)[C@H](Cc3cc4ccccc4[nH]3)n3cc([C@@H](N)Cc4ccc(O)cc4)nn3)CC2)n1,49.7
6,CSc1cccc(NC(=O)/C=C/c2ccccc2)c1,72
7,C=C1c2cccc(O)c2C(O)=C2C(=O)[C@]3(O)C(O)=C(C(N)=O)C(=O)[C@@H](N(C)C)[C@@H]3[C@@H](O)[C@H]12,< 0.23
8,Cc1cc(OCCCCCN2CCCC2)ccc1Cl,51
9,O=C(C[n+]1cc(-c2ccc(Cl)cc2)n2c1CCC2)Nc1nc(-c2ccccc2)cs1,20.1
10,C[N+]12CN3CN(CN(C3)C1)C2,69.8
11,O=C(C[n+]1ccccc1)c1ccc(-c2ccccc2)cc1,123
12,COc1cc(/C=C/[N+](=O)[O-])ccc1O,45
13,CCN1CCCC1CNC(=O)C1CCN(Cc2nc(-c3cccc(Br)c3)oc2C)CC1 (stereo not given),33.3
14,CCCOc1ccc(C(=O)NNC(=S)NC(=O)CC)cc1,28.7
15,O=C(/C=C/c1ccccc1Cl)Nc1cccc(O)c1,49.8
16,CC(NCc1ccc(Cl)c(Cl)c1)C(O)c1ccccc1 (stereo not given),29.8
17,CN1CCC(OC(=O)c2ccc(Cl)cc2Cl)CC1,36.8
18,Fc1ccc(Nc2nnc(C(F)(F)F)s2)cc1Cl,37.8
19,CCn1ncc(/C=N\NC(=O)c2csc3ccccc23)c1C,124
20,CN1CCN(C(c2ccc(C(F)(F)F)cc2)c2ccc3cccnc3c2O)CC1 (stereo not given),21.8
21,O=C(Nc1nnc(-c2ccco2)o1)c1cccc(Cl)c1,43.1
22,CN(C)CCNC(=O)c1ccc(COc2ccc(Cl)cc2Cl)cc1,75.6
